PMC11864979, “First-in-class ultralong-target-residence-time p38α inhibitors as a mitosis-targeted therapy for colorectal cancer” (Nature Cancer, 2025)
Values joined by “and” are separate entries in the source; they are usually repeats but may differ in a detail not shown here. Equal values may be shown once. Read-outs that look alike come from different tables or passages of the source.

Assays:
[1] = tested on: KAP organoids; test: cell viability in KAP organoids (CellTiter-Glo); type: cell-based, mouse
Summary of the method: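 Luminescent ATP read-out (CellTiter-Glo 3D or 2.0) gave viability, expressed relative to DMSO vehicle. Cells came from organoids digested at 37 °C with TrypLE, 100 µg ml^−1 DNaseI and Y-27632, then plated at 1,000–2,000 per well; compound exposure began one day after seeding.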

[2] = tested on: PDO8; test: cell viability in patient-derived CRC organoids PDO8; type: cell-based, human
Method: (§1) For in vitro treatment studies, organoids were mechanically dissociated and digested using TrypLE supplemented with 100 µg ml^−1 DNaseI and 10.5 µM Y-27632 dihydrochloride (Invitrogen) at 37 °C. A total of 1,000–2,000 single cells were plated per well in white 96-well plates (Greiner) in culture medium containing 10% GFR Matrigel or Cultrex BME. The treatment with doxycycline (5 µg ml^−1), pharmacological inhibitors or corresponding volumes of DMSO was started 24 h after plating. Doxycycline was obtained from Sigma-Aldrich. […] Cell viability was measured by means of CellTiter-Glo 3D or CellTiter-Glo 2.0 reagent (Promega) according to the manufacturers’ instructions and the Infinite M Plex reader (Tecan, i-control version 3.9.1 software). Results were normalized to vehicle (DMSO) or to shNC. For cell-doubling assays, the cell number was quantified at the corresponding time points using Guava EasyCyte flow cytometer (Luminex, CytoSoft v5.2 software).

[3] = tested on: PDO11; test: cell viability in patient-derived CRC organoids PDO11; type: cell-based, human
Method: as §1

[4] = tested on: PDO14; test: cell viability in patient-derived CRC organoids PDO14; type: cell-based, human
Method: as §1

[5] = tested on: PDO15; test: cell viability in patient-derived CRC organoids PDO15; type: cell-based, human
Method: as §1

[6] = tested on: COLO 205; test: cell viability in human CRC cell line COLO 205; type: cell-based; details: for COLO 205 Cell viability (%): 4 d
Method: To generate KAP^2D cells, KAP organoids were isolated from Matrigel, fragmented by mechanical dissociation and plated without any extracellular matrix on common cell culture dishes. Phoenix-Eco packaging cells (CRL-3214), HCT-15 (CCL-225), HCT 116 (CCL-247), COLO 205 (CCL-222), LS 174T (CL-188), RKO (CRL-2577) and HT-29 (HTB-38) were obtained from the American Type Culture Collection. The cells were cultured at 37 °C and 7% CO2 with RPMI (KAP^2D cells) or DMEM (other cell lines), supplemented with 10% FBS and penicillin–streptomycin. KAP^2D cells were authenticated using PCR (Kras locus and Trp53 locus). Phoenix-Eco packaging cells and HCT-15, HCT 116, COLO 205, LS 174T, RKO and HT-29 cells were authenticated by the provider using short tandem repeat profiling. No commonly misidentified cell lines were used. Mycoplasma contamination was excluded by a PCR-based analysis.
as §1

[7] = tested on: LS 174T; test: cell viability in human CRC cell line LS 174T; type: cell-based; details: for LS 174T Cell viability (%): 4 d
Method: The cells were cultured at 37 °C and 7% CO2 with RPMI (KAP^2D cells) or DMEM (other cell lines), supplemented with 10% FBS and penicillin–streptomycin. […] No commonly misidentified cell lines were used. Mycoplasma contamination was excluded by a PCR-based analysis.

With `O=C1c2ccc(Nc3ccc(F)cc3F)cc2CCc2ccc(OC[C@H](O)CO)cc21` [SKL, skepinone-L, reference compound] the “Cell viability (%)” value ([1]; Fig. 1g, 0.5 µM, replicates) was 97.57% and 86.81% and 127.06%, the “Cell viability (%)” value ([1]; Fig. 1g, 1 µM, replicates) was 93.70% and 102.05% and 122.58% and the “Cell viability (%)” value ([1]; Fig. 2b, compound screen, replicates) was 78.66% and 92.01% and 89.54%. For the same molecule, the “Cell viability (%)” value ([1]; Fig. 1d, 0.5 µM, replicates) was 86.70% and 72.97%, the “Cell viability (%)” value ([1]; Fig. 1d, 1 µM, replicates) was 91.26% and 93.11% and the “Cell viability (%)” value ([1]; Fig. 1d, 5 µM, replicates) was 88.80% and 85.26%. For the same molecule, the “Cell viability (%)” value ([1]; Fig. 1d, 10 µM, replicates) was 80.68% and 88.78% and 66.49%, the viability at 0.5 µM ([1]; Mus musculus, 24 h, read-out: Cell viability (%), Fig. 1d, 0.5 µM, replicates) was 90.7% and the viability at 1 µM ([1]; Mus musculus, 24 h, read-out: Cell viability (%), Fig. 1d, 1 µM, replicates) was 87.6%. For the same molecule, the viability at 5 µM ([1]; Mus musculus, 24 h, read-out: Cell viability (%), Fig. 1d, 5 µM, replicates) was 86.5%, the viability at 1 µM ([1]; Mus musculus, read-out: Cell viability (% of DMSO), drug screen in KAP organoids, 1 µM concentration, n = 3, mean) was 86.7% and the “induction of cell death in KAP organoids (in words)” value ([1]; viability assay) was “only a very weak induction of cell death”. For the same molecule, the “Cell viability (%)” value ([2]; PDO8, 0.5 µM, 4 d, 0.5 µM) was 95.66% and 98.53% and 69.31%, the “Cell viability (%)” value ([2]; PDO8, 1 µM, 4 days, 1 µM) was 101.75% and 85.55% and 77.65% and the viability at 0.5 µM ([3]; Homo sapiens, 96 h, read-out: Cell viability (%), PDO11, 0.5 µM, 4 d) was 105%. For the same molecule, the “Cell viability (%)” value ([3]; PDO11, 0.5 µM, 4 d, 0.5 µM) was 108.79% and 91.94%, the “Cell viability (%)” value ([3]; PDO11, 1 µM, 4 days, 1 µM) was 107.20% and 119.15% and 97.40% and the viability at 0.5 µM ([4]; Homo sapiens, 96 h, read-out: Cell viability (%), PDO14, 0.5 µM, 4 d) was 104%. The viability at 1 µM ([4]; Homo sapiens, 96 h, read-out: Cell viability (%), PDO14, 1 µM, 4 days) was 100%, the “Cell viability (%)” value ([4]; PDO14, 0.5 µM, 4 d, 0.5 µM) was 101.08% and 101.64% and the “Cell viability (%)” value ([4]; PDO14, 1 µM, 4 days, 1 µM) was 109.63% and 109.64%. The viability at 0.5 µM ([5]; Homo sapiens, 96 h, read-out: Cell viability (%), PDO15, 0.5 µM, 4 d) was 98%, the viability at 1 µM ([5]; Homo sapiens, 96 h, read-out: Cell viability (%), PDO15, 1 µM, 4 days) was 106% and the “Cell viability (%)” value ([5]; PDO15, 0.5 µM, 4 d, 0.5 µM) was 99.16% and 105.27%. For the same molecule, the “Cell viability (%)” value ([5]; PDO15, 1 µM, 4 days, 1 µM) was 107.85% and 101.84%, the “COLO 205 Cell viability (%)” value ([6]; 0.0137 µM) was 96.45% and 96.38% and 97.30% and 129.19% and 99.27% and 94.84% and the “COLO 205 Cell viability (%)” value ([6]; 0.0412 µM) was 127.57% and 100.82% and 92.20% and 93.68% and 91.56% and 87.30%. The “COLO 205 Cell viability (%)” value ([6]; 0.1235 µM) was 118.98% and 94.94% and 87.73% and 92.65% and 90.17% and 91.06%, the “COLO 205 Cell viability (%)” value ([6]; 0.3704 µM) was 128.00% and 91.92% and 96.35% and 88.32% and 91.46% and 92.15% and the “COLO 205 Cell viability (%)” value ([6]; 1.1111 µM) was 104.82% and 92.26% and 92.51% and 87.03% and 84.46% and 82.14%. For the same molecule, the “COLO 205 Cell viability (%)” value ([6]; 3.3333 µM) was 118.94% and 101.69% and 108.96% and 89.84% and 86.56% and 82.40%, the “COLO 205 Cell viability (%)” value ([6]; 10.0000 µM) was 88.40% and 89.99% and 81.09% and 75.75% and 75.52% and the viability at 10 µM ([6]; Homo sapiens, COLO 205, 96 h, read-out: COLO 205 Cell viability (%), 10.0000 µM, 4 d) was 86.3%. The “LS 174T Cell viability (%)” value ([7]; 0.0137 µM) was 99.40% and 93.05% and 101.28% and 92.22%, the “LS 174T Cell viability (%)” value ([7]; 0.0412 µM) was 92.09% and 86.77% and 91.37% and 88.68% and 85.53% and the “LS 174T Cell viability (%)” value ([7]; 0.1235 µM) was 82.00% and 78.88% and 87.71% and 84.96%. For the same molecule, the “LS 174T Cell viability (%)” value ([7]; 0.3704 µM) was 80.28% and 77.65% and 86.62% and 87.42% and 86.17%, the “LS 174T Cell viability (%)” value ([7]; 1.1111 µM) was 91.92% and 90.66% and 93.51% and 91.38% and 95.21% and the “LS 174T Cell viability (%)” value ([7]; 3.3333 µM) was 99.97% and 97.60% and 100.77% and 96.22% and 98.37%. For the same molecule, the “LS 174T Cell viability (%)” value ([7]; 10.0000 µM) was 102.64% and 93.49% and 96.83% and 90.78% and 93.45%, the viability at 0.0137 µM ([7]; Homo sapiens, LS174T, 96 h, read-out: LS 174T Cell viability (%), 0.0137 µM, 4 d) was 100% and the viability at 0.0412 µM ([7]; Homo sapiens, LS174T, 96 h, read-out: LS 174T Cell viability (%), 0.0412 µM, 4 d) was 94.4%.
